In ChEMBL document CHEMBL3045561, “Feeding deterrents from Zanthoxylum schinifolium against two stored-product insects” (J Agric Food Chem, 2009):

Legend:
Assay type in all cases: functional
[1] = tested on: Tribolium castaneum; test: Feeding deterrent activity against adult Tribolium castaneum (red flour beetle) on compound pre-treated wheat flour disks assessed as food utilization rate at 10 ppm after 3 days by flour disk bioassay (reference value: 20.59 +/-1.47%)
[2] = tested on: Tribolium castaneum; test: Feeding deterrent activity against adult Tribolium castaneum (red flour beetle) on compound pre-treated wheat flour disks assessed as food utilization rate at 3 ppm after 3 days by flour disk bioassay (reference value: 20.59 +/-1.47%)
[3] = tested on: Sitophilus zeamais; test: Feeding deterrent activity against adult Sitophilus zeamais on compound pretreated wheat flour disks assessed as food utilization rate at 1000 ppm after 3 days by flour disk bioassay (reference value: 11.09 +/-1.12%)
[4] = tested on: Sitophilus zeamais; test: Feeding deterrent activity against adult Sitophilus zeamais on compound pretreated wheat flour disks assessed as food utilization rate at 300 ppm after 3 days by flour disk bioassay (reference value: 11.09 +/-1.12%)
[5] = tested on: Sitophilus zeamais; test: Feeding deterrent activity against adult Sitophilus zeamais on compound pretreated wheat flour disks assessed as food utilization rate at 30 ppm after 3 days by flour disk bioassay (reference value: 11.09 +/-1.12%)
[6] = tested on: Sitophilus zeamais; test: Feeding deterrent activity against adult Sitophilus zeamais on compound pretreated wheat flour disks assessed as food utilization rate at 10 ppm after 3 days by flour disk bioassay (reference value: 11.09 +/-1.12%)
[7] = tested on: Sitophilus zeamais; test: Feeding deterrent activity against adult Sitophilus zeamais on compound pretreated wheat flour disks assessed as food utilization rate at 3 ppm after 3 days by flour disk bioassay (reference value: 11.09 +/-1.12%)
[8] = tested on: Tribolium castaneum; test: Feeding deterrent activity against adult Tribolium castaneum (red flour beetle) on compound pre-treated wheat flour disks assessed as relative food consumption rate at 100 ppm after 3 days by flour disk bioassay (reference value: 143.22 +/-4.32 ug/mg/day)
[9] = tested on: Tribolium castaneum; test: Feeding deterrent activity against adult Tribolium castaneum (red flour beetle) on compound pre-treated wheat flour disks assessed as relative food consumption rate at 10 ppm after 3 days by flour disk bioassay (reference value: 143.22 +/-4.32 ug/mg/day)
[10] = tested on: Tribolium castaneum; test: Feeding deterrent activity against adult Tribolium castaneum (red flour beetle) on compound pre-treated wheat flour disks assessed as relative food consumption rate at 3 ppm after 3 days by flour disk bioassay (reference value: 143.22 +/-4.32 ug/mg/day)
[11] = tested on: Sitophilus zeamais; test: Feeding deterrent activity against adult Sitophilus zeamais on compound pretreated wheat flour disks assessed as relative food consumption rate at 1000 ppm after 3 days by flour disk bioassay (reference value: 122.72 +/-4.32 ug/mg/day)
[12] = tested on: Sitophilus zeamais; test: Feeding deterrent activity against adult Sitophilus zeamais on compound pretreated wheat flour disks assessed as relative food consumption rate at 100 ppm after 3 days by flour disk bioassay (reference value: 122.72 +/-4.32 ug/mg/day)
[13] = tested on: Tribolium castaneum; test: Feeding deterrent activity against adult Tribolium castaneum (red flour beetle) on compound pre-treated wheat flour disks assessed as relative growth rate at 1000 ppm after 3 days by flour disk bioassay (reference value: 29.49 +/-1.35 ug/mg/day)
[14] = tested on: Tribolium castaneum; test: Feeding deterrent activity against adult Tribolium castaneum (red flour beetle) on compound pre-treated wheat flour disks assessed as relative growth rate at 300 ppm after 3 days by flour disk bioassay (reference value: 29.49 +/-1.35 ug/mg/day)
[15] = tested on: Tribolium castaneum; test: Feeding deterrent activity against adult Tribolium castaneum (red flour beetle) on compound pre-treated wheat flour disks at 30 ppm after 3 days by flour disk bioassay
[16] = tested on: Tribolium castaneum; test: Feeding deterrent activity against adult Tribolium castaneum (red flour beetle) on compound pre-treated wheat flour disks assessed as relative growth rate at 30 ppm after 3 days by flour disk bioassay (reference value: 29.49 +/-1.35 ug/mg/day)
[17] = tested on: Tribolium castaneum; test: Feeding deterrent activity against adult Tribolium castaneum (red flour beetle) on compound pre-treated wheat flour disks assessed as relative growth rate at 10 ppm after 3 days by flour disk bioassay (reference value: 29.49 +/-1.35 ug/mg/day)
[18] = tested on: Sitophilus zeamais; test: Feeding deterrent activity against adult Sitophilus zeamais on compound pretreated wheat flour disks assessed as relative growth rate at 3 ppm after 3 days by flour disk bioassay (reference value: 13.61 +/-1.13 ug/mg/day)
[19] = tested on: Tribolium castaneum; test: Feeding deterrent activity against adult Tribolium castaneum (red flour beetle) on compound pre-treated wheat flour disks at 3 ppm after 3 days by flour disk bioassay
[20] = tested on: Sitophilus zeamais; test: Feeding deterrent activity against adult Sitophilus zeamais on compound pretreated wheat flour disks at 3 ppm after 3 days by flour disk bioassay
[21] = tested on: Tribolium castaneum; test: Feeding deterrent activity against adult Tribolium castaneum (red flour beetle) on compound pre-treated wheat flour disks assessed as mortality at 1000 ppm after 3 days by flour disk bioassay (reference value: 0%)
[22] = tested on: Tribolium castaneum; test: Feeding deterrent activity against adult Tribolium castaneum (red flour beetle) on compound pre-treated wheat flour disks assessed as mortality at 300 ppm after 3 days by flour disk bioassay (reference value: 0%)
[23] = tested on: Tribolium castaneum; test: Feeding deterrent activity against adult Tribolium castaneum (red flour beetle) on compound pre-treated wheat flour disks assessed as mortality at 30 ppm after 3 days by flour disk bioassay (reference value: 0%)
[24] = tested on: Tribolium castaneum; test: Feeding deterrent activity against adult Tribolium castaneum (red flour beetle) on compound pre-treated wheat flour disks assessed as food utilization rate at 1000 ppm after 3 days by flour disk bioassay (reference value: 20.59 +/-1.47%)
[25] = tested on: Tribolium castaneum; test: Feeding deterrent activity against adult Tribolium castaneum (red flour beetle) on compound pre-treated wheat flour disks assessed as food utilization rate at 100 ppm after 3 days by flour disk bioassay (reference value: 20.59 +/-1.47%)

| SMILES | ECI [1] | ECI [2] | ECI [3] | ECI [4] | ECI [5] | ECI [6] | ECI [7] | Activity [8] | Activity [9] | Activity [10] | Activity [11] | Activity [12] | Activity [13] | Activity [14] | FDI [15] | Activity [16] | Activity [17] | Activity [18] | FDI [19] | FDI [20] | other results |
| --- | --- | --- | --- | --- | --- | --- | --- | --- | --- | --- | --- | --- | --- | --- | --- | --- | --- | --- | --- | --- | --- |
| CCCCCCCc1cc(=O)c2ccccc2n1C [SCHINIFOLINE] | 20.32% | 20.68% | 3.84% | 5.92% | 10.07% | 10.73% | 11.21% | 53.37 µg/mg/day | 119.29 µg/mg/day | 139.51 µg/mg/day | 10.51 µg/mg/day | 50.29 µg/mg/day | 0.07 µg/mg/day | 1.6 µg/mg/day | 45.07% | 13.13 µg/mg/day | 24.24 µg/mg/day | 13.72 µg/mg/day | 4.46% | 1.47% | mortality at 1000 ppm [21]: 20%; mortality at 300 ppm [22]: 8%; mortality at 30 ppm [23]: 0%; ECI [24]: 3.29%; ECI [25]: 11.57% |
| COc1ccc2c(OC)c3ccoc3nc2c1OC [SKIMMIANINE] | 19.41% | 20.25% | 4.21% | 6.81% | 10.34% | 10.67% | 10.98% | 61.88 µg/mg/day | 124.71 µg/mg/day | 137.89 µg/mg/day | 18.31 µg/mg/day | 59.65 µg/mg/day | 1.23 µg/mg/day | 3.17 µg/mg/day | 30.12% | 15.31 µg/mg/day | 24.21 µg/mg/day | 13.27 µg/mg/day | 4.31% | 3.53% | mortality at 1000 ppm [21]: 14%; mortality at 300 ppm [22]: 6%; mortality at 30 ppm [23]: 0%; ECI [24]: 7.81%; ECI [25]: 13.72% |
